assay: Inhibition of Trypanosoma brucei adenine phosphoribosyltransferase expressed in Escherichia coli measured by spectrophotometric method

Nc1ncnc2c1ncn2[C@H](CO)COCP(=O)(O)O and Nc1ncnc2c1ncn2C(CO)COCP(=O)(O)O (configuration not stated) are within 1.5-fold of each other in Ki: 15.4 µM for the first, 19.7 µM for the second.

Going from CCO[C@@H](COCP(=O)(O)O)n1cnc2c(N)ncnc21 to CCO[C@H](COCP(=O)(O)O)n1cnc2c(N)ncnc21, the Ki falls from > 30 µM to 2.39 µM. The second binds more tightly here.

Going from CC[C@H](COCP(=O)(O)O)n1cnc2c(N)ncnc21 to CCC(COCP(=O)(O)O)n1cnc2c(N)ncnc21 (configuration not stated), the Ki rises from 3.18 µM to 11.8 µM (3.7-fold).

Going from CC(C)[C@H](COCP(=O)(O)O)n1cnc2c(N)ncnc21 to CC(C)[C@@H](COCP(=O)(O)O)n1cnc2c(N)ncnc21, the Ki rises from 0.57 µM to 17.5 µM (31-fold). The first binds more tightly here.

Going from CC(COCP(=O)(O)O)n1cnc2c(N)ncnc21 (configuration not stated) to COC(COCP(=O)(O)O)n1cnc2c(N)ncnc21 (configuration not stated), the Ki falls from > 30 µM to 13.1 µM. The second binds more tightly here.

First: Nc1ncnc2c1ncn2[C@@H](CCOCP(=O)(O)O)OCCO
Second: Nc1ncnc2c1ncn2[C@H](CCOCP(=O)(O)O)OCCO
The Ki of the first is 24-fold lower: 1.56 µM for the first, 37.2 µM for the second. The first binds more tightly here.

Nc1ncnc2c1ncn2C(COCP(=O)(O)O)OCCO (configuration not stated) and Nc1ncnc2c1ncn2C(CCOCP(=O)(O)O)OCCO (configuration not stated) are within 1.5-fold of each other in Ki: 6.1 µM for the first, 4.9 µM for the second.

First: C=CC(COCP(=O)(O)O)n1cnc2c(N)ncnc21 (configuration not stated)
Second: CO[C@@H](COCP(=O)(O)O)n1cnc2c(N)ncnc21
The Ki of the first is lower: 16.3 µM for the first, > 30 µM for the second.

First: Nc1ncnc2c1ncn2C(COCP(=O)(O)O)C(F)(F)F (configuration not stated)
Second: C#CC(COCP(=O)(O)O)n1cnc2c(N)ncnc21 (configuration not stated)
The Ki of the first is higher: > 30 µM for the first, 26.7 µM for the second. The second binds more tightly here.

Nc1ncnc2c1ncn2C(CCP(=O)(O)O)OCCO (configuration not stated) and Nc1ncnc2c1ncn2C(COCCP(=O)(O)O)OCCO (configuration not stated) cannot be ordered by Ki: > 30 µM for the first, > 30 µM for the second.

Nc1ncnc2c1ncn2[C@H](COCc1ccccc1)COCP(=O)(O)O and Nc1ncnc2c1ncn2[C@@H](COCc1ccccc1)COCP(=O)(O)O cannot be ordered by Ki: 39 µM for the first, > 30 µM for the second.

Nc1ncnc2c1ncn2C(CCOCP(=O)(O)O)OCCCO (configuration not stated) and CCOC(COCP(=O)(O)O)n1cnc2c(N)ncnc21 (configuration not stated) are within 1.5-fold of each other in Ki: 3.21 µM for the first, 3.95 µM for the second.

Going from CO[C@H](COCP(=O)(O)O)n1cnc2c(N)ncnc21 to Nc1ncnc2c1ncn2[C@@H](COCP(=O)(O)O)C1CC1, the Ki falls from 9.88 µM to 2.95 µM (3.3-fold).

Compound Nc1ncnc2c1ncn2C(COCP(=O)(O)O)C1CC1 (configuration not stated) has a Ki of 5.84 µM.
